Source: US20130012434A1, “NOVEL SPIRO IMIDAZOLONES AS GLUCAGON RECEPTOR ANTAGONISTS, COMPOSITIONS, AND METHODS FOR THEIR USE” (priority 2010, published 2013)

Target: T1, recombinant human glucagon receptor (Homo sapiens, UniProt P47871)
T1 construct: expressed in transfected cells; host or cells: CHO cells
Experiment: Inhibition of glucagon-stimulated intracellular cAMP assay
Type: cell-based
Settings: CHO cells expressing recombinant human glucagon receptor, stimulated with 300 pM glucagon, LANCE cAMP kit
Method: Inhibition of Glucagon-Stimulated Intracellular cAMP Assay
Chinese hamster ovary (CHO) cells expressing the recombinant human glucagon receptor were harvested with the aid of non-enzymatic cell dissociation solution (GIBCO 13151-014). The cells were then pelleted and suspended in the stimulation buffer (1×HBSS, 5 mM Hepes, 0.1% BSA, pH7.4 in presence of complete protease inhibitor and phosphodiesterase inhibitor). The adenylate cyclase assay was conducted following the LANCE cAMP Kit (Perkin Elmer, AD0262) instructions. Briefly, cells were preincubated with anti-cAMP antibody in the stimulation buffer with a final concentration of 3% DMSO for 30 minutes and then stimulated with 300 pM glucagon for 45 minutes. The reaction was stopped by incubating with the detection buffer containing Europium chelate of the Eu-SA/Biotin-cAMP tracer for 20 hours. The fluorescence intensity emitted from the assay was measured at 665 nm using PheraStar instruments. […] Standard cAMP concentrations were conducted concurrently for conversion of fluorescence signal to cAMP level. Data was analyzed using GraphPad Prism. IC50 values were calculated using non-linear regression analysis assuming single site competition. […] Some of the compounds of the invention shown in the examples measured less than about 5 μM in this assay; other examples measured less than about 500 nM; others less than about 100 nM. […]

T1 sequence (P47871 26-477): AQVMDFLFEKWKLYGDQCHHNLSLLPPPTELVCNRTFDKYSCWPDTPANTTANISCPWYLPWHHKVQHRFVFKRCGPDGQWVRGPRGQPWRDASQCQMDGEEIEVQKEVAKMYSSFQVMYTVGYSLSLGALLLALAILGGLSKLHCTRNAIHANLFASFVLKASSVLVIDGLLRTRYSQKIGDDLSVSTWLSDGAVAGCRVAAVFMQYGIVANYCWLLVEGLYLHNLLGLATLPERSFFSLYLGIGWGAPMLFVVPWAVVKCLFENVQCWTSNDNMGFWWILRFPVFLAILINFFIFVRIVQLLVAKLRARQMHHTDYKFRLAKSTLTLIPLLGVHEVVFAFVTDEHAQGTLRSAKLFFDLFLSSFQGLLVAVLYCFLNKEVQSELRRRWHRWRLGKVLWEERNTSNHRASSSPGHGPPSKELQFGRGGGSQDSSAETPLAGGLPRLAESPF

Row | IC50 [nM] | Structure (SMILES)
1 | 61 | CC(C)(C)CC[C@H](c1ccc(C(=O)NCCC(=O)O)cc1)N1C(=O)C(c2cccc(F)c2)=NC12CCC([Si](C)(C)C)CC2 (some centres unmarked) [Example 5.26]
2 | 22 | CC(C)(C)CCOc1cccc(C2=NC3(CCC(C(C)(C)C)CC3)N([C@H](CCC(C)(C)C)c3ccc(C(=O)NCc4nn[nH]n4)cc3)C2=O)c1 (some centres unmarked) [Example 5.69]
